Experimental data as given in ChEMBL document CHEMBL3102743, “Regulation of crosstalk between epithelial to mesenchymal transition molecules and MMP-9 mediates the antimetastatic activity of anethole in DU145 prostate cancer cells” (J Nat Prod, 2014).
The source made the active and inactive calls. The rule behind the calls is not given here.

Experiments:
DU-145 [1] = experiment: Antimigratory activity in human DU145 cells at 100 uM by wound-healing assay; assay type: functional, cell-based
DU-145 [2] = experiment: Antimetastatic activity in MMP9 siRNA transfected human DU145 cells assessed as increase of E-cadherin expression at 25 to 100 uM by Western blotting; assay type: functional, cell-based
DU-145 [3] = experiment: Antimetastatic activity in human DU145 cells assessed as reduction of vimentin expression at 100 uM after 24 hrs by Western blotting in presence of TGF-beta; assay type: functional, cell-based
DU-145 [4] = experiment: Antimetastatic activity in human DU145 cells assessed as reduction of twist expression at 100 uM after 24 hrs by Western blotting in presence of TGF-beta; assay type: functional, cell-based
DU-145 [5] = experiment: Antimetastatic activity in human DU145 cells assessed as increase of E-cadherin expression at 100 uM after 24 hrs by immunofluorescence analysis in presence of TGF-beta; assay type: functional, cell-based
DU-145 [6] = experiment: Antimetastatic activity in human DU145 cells assessed as decrease of MMP9 expression at 100 uM in presence of TGF-beta; assay type: functional, cell-based
DU-145 [7] = experiment: Cytotoxicity against human DU145 cells assessed as cell viability up to 200 uM after 24 hrs by MTT assay; assay type: cell-based; conditions: du-145, 24 h
DU-145 [8] = experiment: Antimetastatic activity in human DU145 cells assessed as decrease of PI3K/Akt expression by Western blotting; assay type: functional, cell-based
DU-145 [9] = experiment: Antimetastatic activity in human DU145 cells assessed as decrease of vimentin mRNA expression at 25 to 100 uM by RT-PCR analysis; assay type: functional, cell-based
DU-145 [10] = experiment: Antimetastatic activity in human DU145 cells assessed as increase of E-cadherin mRNA expression at 25 to 100 uM by RT-PCR analysis; assay type: functional, cell-based
DU-145 [11] = experiment: Antimetastatic activity in human DU145 cells assessed as decrease of twist mRNA expression at 25 to 100 uM by RT-PCR analysis; assay type: functional, cell-based
DU-145 [12] = experiment: Antiinvasive activity in human DU145 cells assessed as reduction of number of invaded cells through matrigel at 25 to 100 uM after 8 hrs by Boyden chamber invasion assay; assay type: functional, cell-based
DU-145 [13] = experiment: Antimetastatic activity in human DU145 cells assessed as increase of E-cadherin expression at 25 to 100 uM by Western blotting; assay type: functional, cell-based
DU-145 [14] = experiment: Antiinvasive activity in human DU145 cells assessed as reduction of number of invaded cells through matrigel at 100 uM after 8 hrs by Boyden chamber invasion assay in presence of TGF-beta; assay type: functional, cell-based
DU-145 [15] = experiment: Antimetastatic activity in MMP9 siRNA transfected human DU145 cells assessed as increase of vimentin expression at 25 to 100 uM by Western blotting; assay type: functional, cell-based
DU-145 [16] = experiment: Antimetastatic activity in human DU145 cells assessed as increase of E-cadherin expression at 100 uM after 24 hrs by Western blotting in presence of TGF-beta; assay type: functional, cell-based
[17] = target: Matrix metalloproteinase-9 (Homo sapiens) (UniProt P14780); experiment: Inhibition of MMP9 in human DU145 cells after 24 hrs by SDS-PAGE gelatin zymography assay; assay type: cell-based; conditions: DU-145
DU-145 [18] = experiment: Inhibition of cell adhesion in human DU145 cells in vitronectin-coated plates at 25 to 100 uM; assay type: functional, cell-based
DU-145 [19] = experiment: Antimetastatic activity in human DU145 cells assessed as decrease of MMP9 mRNA expression at 25 to 100 uM by RT-PCR analysis; assay type: functional, cell-based
DU-145 [20] = experiment: Antimetastatic activity in human DU145 cells assessed as decrease of snail mRNA expression at 25 to 100 uM by RT-PCR analysis; assay type: functional, cell-based
DU-145 [21] = experiment: Antimetastatic activity in human DU145 cells assessed as decrease of twist expression at 25 to 100 uM by Western blotting; assay type: functional, cell-based
DU-145 [22] = experiment: Antimetastatic activity in human DU145 cells assessed as decrease of vimentin expression at 25 to 100 uM by Western blotting; assay type: functional, cell-based

Chain of Matrix metalloproteinase-9 (Homo sapiens) (P14780 whole entry): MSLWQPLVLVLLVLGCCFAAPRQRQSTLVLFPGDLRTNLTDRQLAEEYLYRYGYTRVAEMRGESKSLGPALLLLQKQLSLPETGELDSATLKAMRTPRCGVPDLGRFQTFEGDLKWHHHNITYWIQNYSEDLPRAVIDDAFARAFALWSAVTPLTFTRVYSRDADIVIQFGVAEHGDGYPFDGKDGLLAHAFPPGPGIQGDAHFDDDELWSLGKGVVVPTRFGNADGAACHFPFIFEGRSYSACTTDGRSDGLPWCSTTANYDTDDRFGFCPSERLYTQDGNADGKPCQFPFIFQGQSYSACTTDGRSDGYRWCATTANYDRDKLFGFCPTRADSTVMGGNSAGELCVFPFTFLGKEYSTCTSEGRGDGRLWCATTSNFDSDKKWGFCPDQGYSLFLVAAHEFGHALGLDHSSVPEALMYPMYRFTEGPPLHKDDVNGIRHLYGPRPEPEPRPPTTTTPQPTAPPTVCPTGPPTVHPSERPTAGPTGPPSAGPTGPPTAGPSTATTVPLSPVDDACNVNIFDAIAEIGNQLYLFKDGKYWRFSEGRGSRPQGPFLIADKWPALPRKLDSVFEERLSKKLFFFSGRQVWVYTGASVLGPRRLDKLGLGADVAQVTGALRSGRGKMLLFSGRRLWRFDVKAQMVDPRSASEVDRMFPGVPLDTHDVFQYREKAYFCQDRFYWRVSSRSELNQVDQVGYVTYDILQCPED

## C/C=C/c1ccc(OC)cc1 [ANETHOLE]
DU-145 [1]
  Activity: Active
DU-145 [2]
  Activity: inactive
DU-145 [3]
  Activity: inactive
DU-145 [4]
  Activity: inactive
DU-145 [5]
  Activity: inactive
DU-145 [6]
  Activity: inactive
DU-145 [7]
  Activity: Non-toxic
DU-145 [8]
  Activity: Dose-dependent effect
DU-145 [9]
  Activity: Active
DU-145 [10]
  Activity: Active
DU-145 [11]
  Activity: Active
DU-145 [12]
  Activity: Active
DU-145 [13]
  Activity: Active
DU-145 [14]
  Activity: inactive
DU-145 [15]
  Activity: inactive
DU-145 [16]
  Activity: inactive
[17]
  inhibition: Dose-dependent effect
DU-145 [18]
  inhibition: Active
DU-145 [19]
  Activity: Active
DU-145 [20]
  Activity: Active
DU-145 [21]
  Activity: Active
DU-145 [22]
  Activity: Active
